This is an account of results in US8586550B2, “Thiazole derivatives as SGLT2 inhibitors and pharmaceutical composition comprising same” (Green Cross Corporation, priority 2010, dated 2013).

The IC50 is the concentration at which inhibition is half-maximal.

In the test the target is T1, Human SGLT2 (hSGLT2) (Homo sapiens, UniProt P31639).
T1 construct: expressed in transfected cells
T1 sequence (P31639 1-672): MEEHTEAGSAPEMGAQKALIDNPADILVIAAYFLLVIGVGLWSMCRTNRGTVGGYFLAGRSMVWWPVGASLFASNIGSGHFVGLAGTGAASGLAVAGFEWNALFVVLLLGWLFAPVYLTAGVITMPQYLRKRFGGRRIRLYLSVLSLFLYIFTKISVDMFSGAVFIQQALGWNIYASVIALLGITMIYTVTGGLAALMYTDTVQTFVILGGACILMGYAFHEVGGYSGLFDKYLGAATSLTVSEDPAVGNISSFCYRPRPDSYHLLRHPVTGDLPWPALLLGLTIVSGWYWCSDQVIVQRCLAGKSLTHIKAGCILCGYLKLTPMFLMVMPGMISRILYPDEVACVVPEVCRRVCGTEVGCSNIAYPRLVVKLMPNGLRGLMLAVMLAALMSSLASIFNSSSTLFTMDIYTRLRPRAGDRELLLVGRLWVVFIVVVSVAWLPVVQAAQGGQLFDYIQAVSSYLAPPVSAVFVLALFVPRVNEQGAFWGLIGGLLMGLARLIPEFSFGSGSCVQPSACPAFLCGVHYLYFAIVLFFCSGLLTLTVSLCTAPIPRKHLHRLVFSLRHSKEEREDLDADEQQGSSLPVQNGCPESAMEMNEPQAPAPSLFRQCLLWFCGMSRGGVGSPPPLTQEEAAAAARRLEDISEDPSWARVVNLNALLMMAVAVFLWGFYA
The experiment in a line: Sodium-dependent glucose transport (14C-AMG uptake) assay in CHO cells stably expressing hSGLT2. In kind it is cell-based. The conditions noted are these: CHO cells expressing hSGLT2, 14C-AMG uptake, 37° C. for 2 h; single determinations; read-out: hSGLT2 Inhibitory Activity IC50. In a few lines:
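CHO cells stably expressing human SGLT2, preincubated 10 min at 37 °C in sodium-free choline buffer, then 2 h at 37 °C in Na+ buffer with 1 mM AMG plus 8 μM 14C-AMG and inhibitor. Washed cells counted by scintillation; IC50 by nonlinear regression.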
With `COc1cc(Cl)c(Cc2ncc(C3CCCC3)s2)cc1[C@@H]1O[C@H](CO)[C@@H](O)[C@H](O)[C@H]1O` [Example 76, (2S,3R,4R,5S,6R)-2-(4-Chloro-5-((5-cyclopentylthiazol-2-yl)methyl)-2-methoxyphenyl)-6-(hydroxymethyl)tetrahydro-2H-pyran-3,4,5-triol], the IC50 was 9.35 nM.
Consider `OC[C@H]1O[C@@H](c2cc(Cc3ncc(-c4ccco4)s3)c3ccccc3c2)[C@H](O)[C@@H](O)[C@@H]1O` [Example 104, (2S,3R,4R,5S,6R)-2-(4-((5-(Furan-2-yl)thiazol-2-yl)methyl)naphthalen-2-yl)-6-(hydroxymethyl)-tetrahydro-2H-pyran-3,4,5-triol], for which the IC50 was found to be 100 nM.
Consider `OC[C@H]1O[C@@H](c2ccc(C(F)(F)F)c(Cc3ncc(-c4ccccc4)s3)c2)[C@H](O)[C@@H](O)[C@@H]1O` [Example 51, (2R,3S,4R,5R,6S)-2-(Hydroxymethyl)-6-(3-((5-phenylthiazol-2-yl)methyl)-4-(trifluoromethyl)phenyl)tetrahydro-2H-pyran-3,4,5-triol], for which the half-inhibitory concentration (IC50) was 20.8 nM.
As for `OC[C@H]1O[C@@H](c2ccc(Cl)c(Cc3cnc(-c4cc5ccccc5o4)s3)c2)[C@H](O)[C@@H](O)[C@@H]1O` [Example 185, (2S,3R,4R,5S,6R)-2-(3-((2-(Benzofuran-2-yl)thiazol-5-yl)methyl)-4-chlorophenyl)-6-(hydroxymethyl)tetrahydro-2H-pyran-3,4,5-triol], the figure is 76.6 nM.
For `Cc1ccc([C@@H]2O[C@H](CO)[C@@H](O)[C@H](O)[C@H]2O)cc1Cc1ncc(-c2ccsc2)s1` [Example 33, (2R,3S,4R,5R,6S)-2-(Hydroxymethyl)-6-(4-methyl-3-((5-(thiophen-3-yl)thiazol-2-yl)methyl)phenyl)tetrahydro-2H-pyran-3,4,5-triol] the value was 1.28 nM; for `CCCCc1cnc(Cc2cn([C@@H]3O[C@H](CO)[C@@H](O)[C@H](O)[C@H]3O)c3ccccc23)s1` [Example 135, (2R,3R,4S,5S,6R)-2-(3((5-Butylthiazol-2-yl)methyl)-1H-indol-1-yl)-6-(hydroxymethyl)tetrahydro-2H-pyran-3,4,5-triol], 123 nM.
`OC[C@H]1O[C@@H](c2ccc(Cl)c(Cc3ncc(C4CCCCC4)s3)c2)[C@H](O)[C@@H](O)[C@@H]1O` [Example 20, (2S,3R,4R,5S,6R)-2-(4-Chloro-3-((5-cyclohexylthiazol-2-yl)methyl)phenyl)-6-(hydroxymethyl)-tetrahydro-2H-pyran-3,4,5-triol]: the IC50 came to 25.4 nM.
Turning to `OC[C@H]1O[C@@H](c2ccc(C3CC3)c(Cc3ncc(-c4ccco4)s3)c2)[C@H](O)[C@@H](O)[C@@H]1O` [Example 110, (2S,3R,4R,5S,6R)-2-(4-Cyclopropyl-3-((5-(furan-2-yl)thiazol-2-yl)methyl)phenyl)-6-(hydroxymethyl)-tetrahydro-2H-pyran-3,4,5-triol], the concentration for half-maximal inhibition (IC50) was 54.8 nM.
On to `OC[C@H]1O[C@@H](c2cc(Cc3ncc(-c4ccccc4)s3)c(O)c3ccccc23)[C@H](O)[C@@H](O)[C@@H]1O` [Example 125, (2S,3R,4R,5S,6R)-2-(4-Hydroxy-3-((5-phenylthiazol-2-yl)methyl)naphthalen-1-yl)-6-(hydroxymethyl)-tetrahydro-2H-pyran-3,4,5-triol], for which the IC50 worked out at 30.6 nM.
For `OC[C@H]1O[C@@H](c2ccc(F)c(Cc3ncc(-c4ccoc4)s3)c2)[C@H](O)[C@@H](O)[C@@H]1O` [Example 41, (2S,3R,4R,5S,6R)-2-(4-Fluoro-3-((5-(furan-3-yl)thiazol-2-yl)methyl)phenyl)-6-(hydroxymethyl)tetrahydro-2H-pyran-3,4,5-triol], the IC50 was found to be 30.5 nM.
For the compound `Cc1ccc([C@@H]2O[C@H](CO)[C@@H](O)[C@H](O)[C@H]2O)cc1Cc1ncc(-c2ccco2)s1` [Example 30, (2S,3R,4R,5S,6R)-2-(3-((5-(Furan-2-yl)thiazol-2-yl)methyl)-4-methylphenyl)-6-(hydroxymethyl)tetrahydro-2H-pyran-3,4,5-triol], the IC50 is 1.43 nM.
For “(2S,3R,4R,5S,6R)-2-(4-Chloro-3-((4-phenylthiazol-2-yl)methyl)phenyl)-6-(hydroxymethyl)tetrahydro-2H-pyran-3,4,5-triol [Example 71]”, the 50% inhibitory concentration (IC50) worked out at 1.59 nM.
In the case of `Cc1cnc(Cc2cc([C@@H]3O[C@H](CO)[C@@H](O)[C@H](O)[C@H]3O)c(Cl)cc2Cl)s1` [Example 63, (2S,3R,4R,5S,6R)-2-(2,4-Dichloro-5-((5-methylthiazol-2-yl)methyl)phenyl)-6-(hydroxymethyl)tetrahydro-2H-pyran-3,4,5-triol], the IC50 was found to be 49.1 nM.
`COc1cc(Cl)c(Cc2ncc(-c3ccsc3)s2)cc1[C@@H]1O[C@H](CO)[C@@H](O)[C@H](O)[C@H]1O` [Example 72, (2S,3R,4R,5S,6R)-2-(4-Chloro-2-methoxy-5-((5-(thiophen-3-yl)thiazol-2-yl)methyl)phenyl)-6-(hydroxymethyl)tetrahydro-2,1-pyran-3,4,5-triol]: the IC50 was determined as 1.29 nM.
`OC[C@H]1O[C@@H](c2cc(Cc3ncc(-c4cccs4)s3)c(O)c3ccccc23)[C@H](O)[C@@H](O)[C@@H]1O` [Example 124, (2S,3R,4R,5S,6R)-2-(4-Hydroxy-3-((5-(thiophen-2-yl)thiazol-2-yl)methyl)naphthalen-1-yl)-6-(hydroxymethyl)-tetrahydro-2H-pyran-3,4,5-triol]: the 50% inhibitory concentration (IC50) worked out at 7.97 nM.
As to `OC[C@H]1O[C@@H](c2ccc(C(F)(F)F)c(Cc3ncc(-c4ccsc4)s3)c2)[C@H](O)[C@@H](O)[C@@H]1O` [Example 50, (2R,3S,4R,5R,6S)-2-(Hydroxymethyl)-6-(3-((5-(thiophen-3-yl)thiazol-2-yl)methyl)-4-(trifluoromethyl)phenyl)tetrahydro-2H-pyran-3,4,5-triol], the half-inhibitory concentration (IC50) was 14.6 nM.
Take `OC[C@H]1O[C@@H](c2ccc(Cl)c(Cc3cnc(-c4cocn4)s3)c2)[C@H](O)[C@@H](O)[C@@H]1O` [Example 191, (2S,3R,4R,5S,6R)-2-(4-Chloro-3-((2-(oxazol-4-yl)thiazol-5-yl)methyl)phenyl)-6-(hydroxymethyl)tetrahydro-2H-pyran-3,4,5-triol]: the IC50 came out at 45.4 nM.
Regarding `OC[C@H]1O[C@@H](c2cc(Cc3ncc(-c4ccco4)s3)cc3ccccc23)[C@H](O)[C@@H](O)[C@@H]1O` [Example 93, (2S,3R,4R,5S,6R)-2-(3-((5-(Furan-2-yl)thiazol-2-yl)methyl)naphthalen-1-yl)-6-(hydroxymethyl)tetrahydro-2H-pyran-3,4,5-triol], the IC50 came to 14.3 nM.
For the compound `Cc1ccc([C@@H]2O[C@H](CO)[C@@H](O)[C@H](O)[C@H]2O)cc1Cc1ncc(-c2ccccc2)s1` [Example 35, (2R,3S,4R,5R,6S)-2-(Hydroxymethyl)-6-(4-methyl-3-((5-phenylthiazol-2-yl)methyl)phenyl)tetrahydro-2H-pyran-3,4,5-triol], the IC50 was 4.17 nM.
With `OCCOC[C@H]1O[C@@H](c2ccc(Cl)c(Cc3ncc(-c4ccco4)s3)c2)[C@H](O)[C@@H](O)[C@@H]1O` [Example 141, (2S,3R,4R,5S,6R)-2-(4-Chloro-3-((5-(furan-2-yl)thiazol-2-yl)methyl)phenyl)-6-((2-hydroxyethoxy)methyl)tetrahydro-2H-pyran-3,4,5-triol], the IC50 is 30.9 nM.
`OC[C@H]1O[C@@H](c2cc(Cc3ncc(-c4cccs4)s3)c(Cl)cc2F)[C@H](O)[C@@H](O)[C@@H]1O` [Example 55, (2S,3R,4R,5S,6R)-2-(4-Chloro-2-fluoro-5-((5-(thiophen-2-yl)thiazol-2-yl)methyl)phenyl)-6-(hydroxymethyl)tetrahydro-2H-pyran-3,4,5-triol]: the IC50 worked out at 3.88 nM.
As for `C=CCOc1cc(Cl)c(Cc2ncc(-c3ccc(F)cc3)s2)cc1[C@@H]1O[C@H](CO)[C@@H](O)[C@H](O)[C@H]1O` [Example 88, (2S,3R,4R,5S,6R)-2-(2-(Allyloxy)-4-chloro-5-((5-(4-fluorophenyl)thiazol-2-yl)methyl)phenyl)-6-(hydroxymethyl)tetrahydro-2H-pyran-3,4,5-triol], the half-inhibitory concentration (IC50) turned out to be 4.22 nM.
`COc1c(Cc2ncc(-c3cccs3)s2)cc([C@@H]2O[C@H](CO)[C@@H](O)[C@H](O)[C@H]2O)c2ccccc12` [Example 96, (2R,3S,4R,5R,6S)-2-(Hydroxymethyl)-6-(4-methoxy-3-((5-(thiophen-2-yl)thiazol-2-yl)methyl)naphthalen-1-yl)-tetrahydro-2H-pyran-3,4,5-triol]: the IC50 came out at 4.94 nM.
As to `Cc1ccc(-c2ncc(Cc3cc([C@@H]4O[C@H](CO)[C@@H](O)[C@H](O)[C@H]4O)ccc3Cl)s2)s1` [Example 188, (2S,3R,4R,5S,6R)-2-(4-Chloro-3-((2-(5-methylthiophen-2-yl)thiazol-5-yl)methyl)phenyl)-6-(hydroxymethyl)tetrahydro-2H-pyran-3,4,5-triol], the 50% inhibitory concentration (IC50) was determined as 10.4 nM.
